{
  "source": "patent US20030138856A1",
  "about": "“Process for the measurement of dinophysistoxin and yessotoxin” (priority 2000, published 2003)",
  "test_system": "E-cadherin and related antigens ECRA100 and ECRA135 in MCF-7 cells",
  "test": "E-cadherin, ECRA135 and ECRA100 levels in cytosoluble extracts of toxin-treated MCF-7 cells (SDS-PAGE, anti-E-cadherin immunoblotting, densitometry)",
  "format": "cell-based, human",
  "details": "for pattern of E-cadherin and related antigens on immunoblot (FIG. 1): 50 nM each agent, 18 hr at 37° C.; for concentration above which the pattern characteristic for each group of toxins is maintained when the two groups are present at the same time: both toxins together in the cell culture",
  "protocol": "The MCF-7 cell line employed in these experiments has been obtained from the European Collection of Cell Cultures (ECACC No: 86012803; CB No: CB2705). Cells have been maintained at 37° C. in an atmosphere containing 5% CO2 in Petri dishes, in a culture medium composed of Dulbecco's modified MEM, containing foetal bovine serum (10%), nonessential aminoacids (1%) and 2 mM glutamine. Cell treatments have been carried out by adding appropriate aliquots of toxins from stock solutions prepared with absolute ethanol, and control cultures received an identical volume of vehicle. Working solutions of the different agents were obtained by serial dilutions of stock solutions, represented by 50 μM okadaic acid and 500 μM yessotoxin, respectively, and were stored at −20° C., in glass vials, protected from light. The ethanol concentrations in culture media has never been higher than 0.5% (v/v), which represents a concentration uncapable to affect the molecular parameters measured in these experiments.\nThe cellular extracts employed in the present analyses have been obtained from the cells adhering to culture vessels at the end of the indicated treatments, and the procedure was carried out at 4° C. Cells were washed three times with 20 mM phosphate buffer, pH 7.4, containing 0.15 M NaCl (PBS) and were then lysed by the addition of 25 μl of lysis buffer/cm^2 of culture surface area, and by keeping cells in contact with this solution for 10 minutes at 4° C. The lysis buffer was composed of PBS, containing: 0.5% (w/v) Na deoxycholate, 0.1% (w/v) Na dodecylsulfate (SDS), 1% (v/v) Triton X-100, 0.1 mg/ml phenylmethyl sulfonyl fluoride (PMSF). Cellular lysates were then centrifuged for 30 minutes at 16000 xg, and the supernatants of this centrifugation (cytosoluble extracts) were recovered and used to measure their total protein content by a […] method, using bicinchoninic acid (Smith P. K et al., 1985, Anal. Biochem., 150:76). Cytosoluble extracts were then brought to a final 2% SDS, 5% β-mercaptoethanol and 20% glycerol concentration, and were treated for 5 min at 100° C., before being used for protein fractionation by electrophoresis.\nSamples, usually containing the same amount of protein, corresponding to about 50 μg, were subjected to polyacrylamide gel electrophoresis in the presence of SDS, according to the procedure by Laemmli (Laemmli U. K. , 1970, Nature, 227:680), using separating gels containing 10% acrylamide monomer. At the end of the electrophoresis (running time about 3 hr at 170 Volts), proteins were electrophoretically transferred to a nitrocellulose membrane (Protran B83), and were then stained with Ponceau S.\nAspecific binding sites on the membrane were then saturated by a 1 hr incubation at room temperature with a solution composed of 20 mM Tris-HCl, pH 7.5 at 25° C., 150 mM NaCl (TBS), containing 3% (w/v) low fat dry milk and 1 mM CaCl2. The membrane was then incubated with TBS containing 1 % (w/v) low fat dry milk, 1 mM CaCl2, and 2 μg of anti-E-cadherin antibody/ml buffer, for 1 hr at room temperature. At the end of the incubation the membrane was washed four times for 5 min and then a fifth time for 10 min with TBS containing 0.05% (w/v) Tween 20 (TBS-Tween buffer). The membrane was then incubated with TBS-Tween containing 1% (w/v) low fat dry milk and secondary antibody (horse radish peroxydase conjugated anti-mouse Ig antibody) at a 1:3000 dilution, for 1 hr at room temperature. At the end of this incubation, the membrane was washed as previously described, and the antigens were then detected by the ECL procedure and autoradiography, using Kodak X-Omat films. The electropherogram was then subjected to densitometric scanning, and the absorbance measured from the peak area was recorded and used to quantify the detected antigens. […]",
  "key": {"[1]": {"details": "MCF-7 cells, YTX 1 μM, 24 hr incubation, n=4"}, "[2]": {"details": "MCF-7 cells treated with 50 nM OA"}},
  "data": [
    {"compound": "C=CCC(=C)/C=C/[C@@](C)(O)[C@H]1O[C@@H]2C[C@@H]3O[C@@H]4C[C@@H]5O[C@@H]6C[C@@H]7O[C@@H]8C[C@@H]9O[C@@H]%10C[C@@H]%11O[C@](C)(CCOS(=O)(=O)O)[C@@H](OS(=O)(=O)O)C[C@H]%11O[C@H]%10C[C@H]9O[C@H]8CC[C@@]7(C)O[C@@]6(C)CC[C@H](C)[C@H]5O[C@H]4C[C@@]3(C)O[C@H]2CC1=C", "note": "[YTX, yessotoxin]", "values": [
      {"measurement": "ECRA135 detection after treatment with YTX alone", "setting": "MCF-7 cells", "value": "never been detected"},
      {"measurement": "pattern of E-cadherin and related antigens on immunoblot (FIG. 1)", "setting": "MCF-7 cells", "value": "most immunoreactivity is associated with the 100 kDa (101.9±3.2 kDa) band"},
      {"measurement": "YTX concentration at which the increase in immunoreactive material (Σ) is detectable", "setting": "MCF-7 cells, 20 hr", "value": "about 0.2 nM"},
      {"measurement": "YTX concentration at which the increase in immunoreactive material reaches maximal levels", "setting": "MCF-7 cells, 20 hr", "value": "≥ 1", "unit": "nM"},
      {"measurement": "equivalent YTX concentrations within which proportionality in the assay is maintained, as mass concentration", "setting": "MCF-7 cells, 20 hr, corresponding to 0.2-0.5 nM", "value": "240-600 pg YTX/ml"},
      {"measurement": "ECRA135 detection", "setting": "MCF-7 cells, YTX 1 μM, 24 hr incubation", "value": "undetectable"},
      {"measurement": "E-cadherin, share of total immunoreactivity", "setting": "[1]", "value": "52.0±1.7"},
      {"measurement": "ECRA100, share of total immunoreactivity", "setting": "[1]", "value": "48.0±1.7"},
      {"measurement": "relative total immunoreactivity (Σ), as compared to controls", "setting": "[1]", "value": "190±32", "unit": "%"},
      {"measurement": "E-cadherin level, percentage of total immunoreactivity (E-cadherin+ECRA100+ECRA135) of the sample", "setting": "[YTX] ≧0.5 nME/[DTX] <25 nME", "value": "40-60%"},
      {"measurement": "ECRA100 level, percentage of total immunoreactivity of the sample", "setting": "[YTX] ≧0.5 nME/[DTX] <25 nME", "value": "40-60%"},
      {"measurement": "relative total immunoreactivity (Σ), percentage of total immunoreactivity in the controls", "setting": "[YTX] ≧0.5 nME/[DTX] <25 nME", "value": "150-250%"},
      {"measurement": "concentration above which the pattern characteristic for each group of toxins is maintained when the two groups are present at the same time", "value": "> 0.4", "unit": "nM"}
    ]},
    {"compound": "C=C1[C@@H](O)[C@@H]2O[C@]3(CC[C@H](/C=C/[C@@H](C)[C@@H]4CC(C)=C[C@@]5(O[C@H](C[C@@](C)(O)C(=O)O)CC[C@H]5O)O4)O3)CC[C@H]2O[C@@H]1[C@@H](O)C[C@H](C)[C@H]1O[C@@]2(CCCCO2)CC[C@H]1C", "note": "[OA, okadaic acid]", "values": [
      {"measurement": "E-cadherin, % of total immunoreactivity", "setting": "[2]", "value": "77.6±12.3", "unit": "%"},
      {"measurement": "ECRA100, % of total immunoreactivity", "setting": "[2]", "value": "1.8±3.1", "unit": "%"},
      {"measurement": "ECRA135, % of total immunoreactivity", "setting": "[2]", "value": "20.6±9.6", "unit": "%"},
      {"measurement": "relative total immunoreactivity (Σ), % of that in extracts from control cells", "setting": "[2]", "value": "15.4±8.7", "unit": "%"},
      {"measurement": "pattern of E-cadherin and related antigens on immunoblot (FIG. 1)", "setting": "MCF-7 cells", "value": "appearance of ECRA135"},
      {"measurement": "OA concentration at which ECRA100 levels are minimal", "setting": "MCF-7 cells, 20 hr", "value": "higher than 50 nM"},
      {"measurement": "OA concentration at which ECRA135 level is maximal", "setting": "MCF-7 cells, 20 hr", "value": 75, "unit": "nM"},
      {"measurement": "OA concentration at which detection of ECRA135 starts", "setting": "MCF-7 cells, 20 hr", "value": "20 to 30", "unit": "nM"},
      {"measurement": "OA concentration at which the decrease in immunoreactive material (Σ) can be detected", "setting": "MCF-7 cells, 20 hr", "value": "higher than 10 nM"},
      {"measurement": "OA concentration at which the decrease in immunoreactive material (Σ) is maximal", "setting": "MCF-7 cells, 20 hr", "value": "higher than 75 nM"},
      {"measurement": "equivalent OA concentrations within which proportionality in the assay is kept", "setting": "MCF-7 cells, 20 hr", "value": "30 to 75", "unit": "nM"},
      {"measurement": "equivalent OA concentrations within which proportionality in the assay is kept, as mass concentration", "setting": "MCF-7 cells, 20 hr, corresponding to 30-75 nM", "value": "25-60 ng OA/ml"},
      {"measurement": "concentration above which the pattern characteristic for each group of toxins is maintained when the two groups are present at the same time", "value": "higher than 35 nM"}
    ]}
  ]
}
